According to the supplement of paper PMC12463676, “Small-molecule dissolution of stress granules by redox modulation benefits ALS models” (Nature Chemical Biology, 2025):

Experiments:
[1] = compound: NC(=O)CCCCC1CCSS1 [lipoamide]; assay: thermal stability z-score vs DMSO; higher = more thermally stabilized by treatment; conditions: HeLa, lipoamide concentration 100 µM
Procedure: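 Cellular thermal proteome profiling in HeLa cells. Cells were treated with 100 µM lipoamide for 1 h, with or without 1 mM arsenate for a further 1 h, then heated to ten temperatures (37-66.3 °C), and soluble protein was quantified by TMT mass spectrometry relative to 0.1% DMSO controls. The thermal stability score (sum of log2 fold changes minus the abundance score) was transformed to a z-score; mean of n = 3 experiments.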

[2] = compound: O=[As]([O-])(O)O.[K+] [potassium arsenate]; assay: as above; conditions: HeLa; arsenate concentration 1 mM
Procedure: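 Cellular thermal proteome profiling in HeLa cells treated with 1 mM arsenate for 1 h (DMSO pretreatment), heated to ten temperatures (37-66.3 °C). Soluble protein was quantified by TMT mass spectrometry relative to DMSO controls; the thermal stability score was transformed to a z-score; mean of n = 3 experiments.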

[3] = arsenate co-treatment: 1 mM arsenate 1 h
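Note: each temperature applied for 3 min, abundance score taken as mean log2 fold change at the two lowest temperatures, z-score obtained by mean subtraction and division by SD.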

Chain of UniProt Q13322 (Q13322 whole entry): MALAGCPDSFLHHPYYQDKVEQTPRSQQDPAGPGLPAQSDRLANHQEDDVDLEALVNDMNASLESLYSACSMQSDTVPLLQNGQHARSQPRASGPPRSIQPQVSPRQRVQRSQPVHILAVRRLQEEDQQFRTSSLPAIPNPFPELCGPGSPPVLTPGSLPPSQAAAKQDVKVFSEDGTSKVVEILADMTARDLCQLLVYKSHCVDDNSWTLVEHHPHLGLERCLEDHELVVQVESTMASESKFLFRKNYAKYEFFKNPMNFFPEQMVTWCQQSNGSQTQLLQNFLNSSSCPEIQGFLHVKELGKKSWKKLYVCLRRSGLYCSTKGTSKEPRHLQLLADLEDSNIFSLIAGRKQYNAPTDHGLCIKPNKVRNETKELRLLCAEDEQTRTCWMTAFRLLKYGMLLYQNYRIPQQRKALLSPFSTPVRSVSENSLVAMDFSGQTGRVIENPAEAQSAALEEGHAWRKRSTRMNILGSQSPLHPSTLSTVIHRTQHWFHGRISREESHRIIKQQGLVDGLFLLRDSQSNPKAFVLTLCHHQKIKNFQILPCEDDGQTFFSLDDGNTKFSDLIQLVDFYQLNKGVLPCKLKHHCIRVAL
Chain of UniProt Q15910 (Q15910 whole entry, looked up): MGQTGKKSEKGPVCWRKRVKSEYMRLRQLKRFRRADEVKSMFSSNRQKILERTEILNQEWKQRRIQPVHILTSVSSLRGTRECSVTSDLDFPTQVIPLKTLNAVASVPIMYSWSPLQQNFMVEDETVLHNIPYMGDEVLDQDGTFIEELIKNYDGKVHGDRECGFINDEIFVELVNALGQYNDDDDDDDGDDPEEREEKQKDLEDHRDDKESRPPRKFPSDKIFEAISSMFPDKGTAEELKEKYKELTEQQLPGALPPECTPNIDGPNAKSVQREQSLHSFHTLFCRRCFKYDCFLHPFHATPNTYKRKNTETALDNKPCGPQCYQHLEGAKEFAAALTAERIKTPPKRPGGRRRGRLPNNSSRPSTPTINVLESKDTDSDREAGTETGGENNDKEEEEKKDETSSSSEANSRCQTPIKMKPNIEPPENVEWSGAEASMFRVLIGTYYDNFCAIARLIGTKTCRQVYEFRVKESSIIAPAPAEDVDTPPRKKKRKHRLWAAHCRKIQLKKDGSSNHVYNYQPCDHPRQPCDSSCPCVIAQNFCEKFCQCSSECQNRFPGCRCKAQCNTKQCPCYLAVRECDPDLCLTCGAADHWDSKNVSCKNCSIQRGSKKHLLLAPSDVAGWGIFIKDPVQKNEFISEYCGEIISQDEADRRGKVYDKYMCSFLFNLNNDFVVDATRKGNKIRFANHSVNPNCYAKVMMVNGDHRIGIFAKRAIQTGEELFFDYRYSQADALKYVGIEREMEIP
Chain of UniProt Q9BTA9 (Q9BTA9 whole entry): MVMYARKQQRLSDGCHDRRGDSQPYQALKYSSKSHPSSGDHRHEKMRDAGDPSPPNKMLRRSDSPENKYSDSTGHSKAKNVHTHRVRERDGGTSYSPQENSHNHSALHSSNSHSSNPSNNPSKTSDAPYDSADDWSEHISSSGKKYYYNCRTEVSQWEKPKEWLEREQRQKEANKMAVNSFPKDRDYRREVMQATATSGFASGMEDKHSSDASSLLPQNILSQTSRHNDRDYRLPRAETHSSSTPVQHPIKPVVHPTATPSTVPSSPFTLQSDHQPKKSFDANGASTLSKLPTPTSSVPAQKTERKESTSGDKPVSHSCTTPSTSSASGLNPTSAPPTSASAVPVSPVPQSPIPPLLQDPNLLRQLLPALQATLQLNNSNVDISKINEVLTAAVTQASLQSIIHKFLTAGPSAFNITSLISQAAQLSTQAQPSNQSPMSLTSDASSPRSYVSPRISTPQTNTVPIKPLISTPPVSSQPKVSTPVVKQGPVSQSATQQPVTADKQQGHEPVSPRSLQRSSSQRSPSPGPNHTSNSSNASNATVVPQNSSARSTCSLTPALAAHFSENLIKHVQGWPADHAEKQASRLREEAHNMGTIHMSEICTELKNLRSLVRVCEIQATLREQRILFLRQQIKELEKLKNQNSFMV
Chain of UniProt P22736 (P22736 whole entry): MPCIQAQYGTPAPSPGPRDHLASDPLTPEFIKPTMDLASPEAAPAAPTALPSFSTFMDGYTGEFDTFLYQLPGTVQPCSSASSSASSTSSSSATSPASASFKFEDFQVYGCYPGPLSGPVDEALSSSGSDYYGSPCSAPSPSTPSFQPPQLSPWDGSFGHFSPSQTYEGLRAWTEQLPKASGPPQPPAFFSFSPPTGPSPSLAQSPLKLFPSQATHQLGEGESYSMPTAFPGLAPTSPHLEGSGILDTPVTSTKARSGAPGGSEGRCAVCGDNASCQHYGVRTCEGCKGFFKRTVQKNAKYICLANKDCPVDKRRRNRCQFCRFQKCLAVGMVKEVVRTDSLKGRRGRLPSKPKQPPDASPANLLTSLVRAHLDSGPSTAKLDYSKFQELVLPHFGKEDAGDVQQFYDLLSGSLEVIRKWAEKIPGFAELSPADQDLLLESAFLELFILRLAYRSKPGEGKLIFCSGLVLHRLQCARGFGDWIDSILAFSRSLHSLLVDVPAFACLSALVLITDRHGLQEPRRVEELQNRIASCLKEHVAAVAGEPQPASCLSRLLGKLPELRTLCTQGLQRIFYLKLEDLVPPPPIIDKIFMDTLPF
Chain of UniProt P18031 (P18031 whole entry): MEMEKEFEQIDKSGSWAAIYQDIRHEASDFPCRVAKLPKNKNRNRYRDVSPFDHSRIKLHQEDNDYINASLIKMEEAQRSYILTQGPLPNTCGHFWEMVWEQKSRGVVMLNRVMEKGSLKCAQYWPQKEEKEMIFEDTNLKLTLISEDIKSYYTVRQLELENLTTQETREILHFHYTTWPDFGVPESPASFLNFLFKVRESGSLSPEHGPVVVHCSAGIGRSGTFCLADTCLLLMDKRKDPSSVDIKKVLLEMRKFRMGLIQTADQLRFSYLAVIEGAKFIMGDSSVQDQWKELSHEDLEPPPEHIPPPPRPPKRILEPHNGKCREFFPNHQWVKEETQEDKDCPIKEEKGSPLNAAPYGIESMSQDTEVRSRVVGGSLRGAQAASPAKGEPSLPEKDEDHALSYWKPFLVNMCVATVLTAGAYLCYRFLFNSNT
Chain of UniProt Q3KQV9 (Q3KQV9 whole entry): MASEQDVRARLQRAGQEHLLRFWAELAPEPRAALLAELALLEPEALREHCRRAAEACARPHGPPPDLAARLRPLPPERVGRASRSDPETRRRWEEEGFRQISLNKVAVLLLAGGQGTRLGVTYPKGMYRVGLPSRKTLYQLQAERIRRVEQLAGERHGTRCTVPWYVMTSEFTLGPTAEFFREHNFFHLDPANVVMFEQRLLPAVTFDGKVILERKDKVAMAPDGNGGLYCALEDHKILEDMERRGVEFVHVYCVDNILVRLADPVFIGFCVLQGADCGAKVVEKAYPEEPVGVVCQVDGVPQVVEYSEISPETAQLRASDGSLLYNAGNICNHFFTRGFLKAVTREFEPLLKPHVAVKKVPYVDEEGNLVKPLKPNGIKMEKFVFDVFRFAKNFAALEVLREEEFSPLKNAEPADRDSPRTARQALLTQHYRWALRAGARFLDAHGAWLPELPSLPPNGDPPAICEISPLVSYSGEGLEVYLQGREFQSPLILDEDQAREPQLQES
Chain of UniProt Q5VWQ0 (Q5VWQ0 whole entry): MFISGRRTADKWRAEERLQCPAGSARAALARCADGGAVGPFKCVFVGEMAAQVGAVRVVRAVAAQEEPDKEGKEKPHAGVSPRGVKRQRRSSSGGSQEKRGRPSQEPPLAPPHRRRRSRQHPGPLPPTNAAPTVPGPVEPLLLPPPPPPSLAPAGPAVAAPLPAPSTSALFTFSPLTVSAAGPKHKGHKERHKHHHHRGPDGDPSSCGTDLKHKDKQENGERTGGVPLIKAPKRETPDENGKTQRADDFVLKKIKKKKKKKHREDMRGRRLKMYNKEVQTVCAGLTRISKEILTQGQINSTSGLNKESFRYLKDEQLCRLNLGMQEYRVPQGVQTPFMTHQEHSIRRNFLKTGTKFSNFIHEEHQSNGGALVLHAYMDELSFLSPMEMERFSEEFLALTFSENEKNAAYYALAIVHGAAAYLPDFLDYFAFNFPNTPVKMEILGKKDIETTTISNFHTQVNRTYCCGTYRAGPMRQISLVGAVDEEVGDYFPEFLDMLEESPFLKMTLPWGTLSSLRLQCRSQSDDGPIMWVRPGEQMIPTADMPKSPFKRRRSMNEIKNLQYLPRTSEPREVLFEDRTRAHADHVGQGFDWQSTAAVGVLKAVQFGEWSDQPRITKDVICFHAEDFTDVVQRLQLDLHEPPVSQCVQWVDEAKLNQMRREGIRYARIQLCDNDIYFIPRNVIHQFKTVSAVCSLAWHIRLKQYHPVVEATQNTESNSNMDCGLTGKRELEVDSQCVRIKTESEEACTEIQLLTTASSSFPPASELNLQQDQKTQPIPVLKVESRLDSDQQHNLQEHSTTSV
Chain of UniProt Q9UEY8 (Q9UEY8 whole entry): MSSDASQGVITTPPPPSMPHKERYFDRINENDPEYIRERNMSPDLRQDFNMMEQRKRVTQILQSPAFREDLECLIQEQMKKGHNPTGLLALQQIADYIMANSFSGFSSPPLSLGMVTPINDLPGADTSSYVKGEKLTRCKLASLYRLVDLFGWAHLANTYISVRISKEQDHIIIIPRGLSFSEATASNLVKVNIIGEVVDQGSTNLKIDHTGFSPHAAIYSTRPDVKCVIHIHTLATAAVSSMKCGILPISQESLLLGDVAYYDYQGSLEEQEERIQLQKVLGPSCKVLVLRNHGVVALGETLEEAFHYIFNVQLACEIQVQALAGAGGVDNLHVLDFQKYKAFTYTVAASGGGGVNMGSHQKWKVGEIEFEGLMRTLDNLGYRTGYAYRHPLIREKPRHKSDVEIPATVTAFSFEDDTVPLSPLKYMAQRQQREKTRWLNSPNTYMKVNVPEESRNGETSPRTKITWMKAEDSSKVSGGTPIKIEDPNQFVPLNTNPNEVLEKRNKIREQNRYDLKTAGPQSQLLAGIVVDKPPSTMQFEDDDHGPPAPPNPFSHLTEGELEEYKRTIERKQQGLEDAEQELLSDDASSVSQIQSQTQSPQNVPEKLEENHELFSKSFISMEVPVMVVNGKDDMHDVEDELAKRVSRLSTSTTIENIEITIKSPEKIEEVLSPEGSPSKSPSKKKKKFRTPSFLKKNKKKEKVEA

Target	thermal stability z-score [1, 3]	thermal stability z-score ([1]; arsenate co-treatment: none)	thermal stability z-score [2]
GOLM1 (UniProt Q8NBJ4)	0.000985	-0.136	-0.568
TPM2 (UniProt P07951)	0.624	0.462	-0.068
CPT1A (UniProt P50416)	-0.189	-0.268	-0.161
AP5Z1 (UniProt O43299)	0.0372	0.822	0.502
ATP5F1 (UniProt P24539)	-0.648	-0.133	0.226
ARHGAP17 (UniProt Q68EM7)	0.0634	0.493	0.874
AKR1A1 (UniProt P14550)	0.441	-0.302	-0.0811
YWHAH (UniProt Q04917)	0.0489	0.303	0.138
VPS13A (UniProt Q96RL7)	1.04	0.949	0.945
AKAP8 (UniProt O43823)	0.701	-0.426	-0.946
HSPD1 (UniProt P10809)	-0.0897	0.0259	-0.432
ESYT2 (UniProt A0FGR8)	-0.934	-0.479	-0.306
ADNP (UniProt Q9H2P0)	-0.0133	-0.0224	-0.271
STX2 (UniProt P32856)	0.221	-0.18	-0.135
METTL2B (UniProt Q6P1Q9)	-0.019	-0.11	-0.0568
RPS6KA4 (UniProt O75676)	-0.327	-0.0905	0.0157
COX5B (UniProt P10606)	1.26	1.21	-0.926
NR4A1 (UniProt P22736)	0.000871	0.0723	0.179
RP2 (UniProt O75695)	0.38	1.49	-0.738
TAOK3 (UniProt Q9H2K8)	0.238	0.142	0.0629
DNAJB1 (UniProt P25685)	0.448	0.397	0.294
ANXA1 (UniProt P04083)	0.957	0.83	-0.37
JMY (UniProt Q8N9B5)	-0.0736	-0.168	-0.323
NCBP2 (UniProt P52298)	0.782	0.577	-0.0118

Target	thermal stability z-score [1, 3]	thermal stability z-score ([1]; arsenate co-treatment: none)	thermal stability z-score [2]
CWC22 (UniProt Q9HCG8)	-0.0873	0.0387	-0.263
GNAI1 (UniProt P63096)	0.913	1.18	0.0642
PUM2 (UniProt Q8TB72)	-0.565	0.382	-0.343
ZADH2 (UniProt Q8N4Q0)	0.265	0.233	0.319
ILF2 (UniProt Q12905)	0.0392	0.153	-1.96
HSPA1B|HSPA1A	-0.148	0.0496	-0.064
BZW2 (UniProt Q9Y6E2)	0.428	0.313	-0.183
BAG2 (UniProt O95816)	0.187	0.292	-0.106
SMG7 (UniProt Q92540)	-0.0753	-0.0219	-0.0408
PTPN1 (UniProt P18031)	-1.02	-0.578	0.228
EZH2 (UniProt Q15910)	-0.0218	-0.132	-0.158
GNL1 (UniProt P36915)	-0.411	-0.369	0.175
FIS1 (UniProt Q9Y3D6)	-0.114	0.595	-0.678
HFE (UniProt Q30201)	-0.0165	0.389	0.0645
MOSPD2 (UniProt Q8NHP6)	-0.58	-0.383	-0.254
EHD1 (UniProt Q9H4M9)	-0.0636	0.13	-0.0304
TTC13 (UniProt Q8NBP0)	-0.787	-1.08	0.595
CRYBG3 (UniProt Q68DQ2)	-0.828	0.00468	-0.00726
RSBN1 (UniProt Q5VWQ0)	-0.421	-0.198	-0.387
HERC2 (UniProt O95714)	-0.947	-1.04	0.0415
SLC18B1 (UniProt Q6NT16)	-0.405	-0.045	-0.173
SPG20 (UniProt Q8N0X7)	0.715	0.609	0.193
EPS8L2 (UniProt Q9H6S3)	0.124	0.0219	1.1
MTHFD1L (UniProt Q6UB35)	-0.786	-0.399	-0.123

Target	thermal stability z-score [1, 3]	thermal stability z-score ([1]; arsenate co-treatment: none)	thermal stability z-score [2]
NT5DC1 (UniProt Q5TFE4)	0.0662	-0.687	-0.749
PITPNC1 (UniProt Q9UKF7)	-0.545	-0.37	-0.255
ADD3 (UniProt Q9UEY8)	-0.112	0.162	-0.362
UBA5 (UniProt Q9GZZ9)	-0.815	-0.52	0.622
CRLF3 (UniProt Q8IUI8)	-0.236	-0.971	0.0579
MRRF (UniProt Q96E11)	0.298	0.823	0.97
FDPS (UniProt P14324)	-0.000727	-0.16	-0.437
WAC (UniProt Q9BTA9)	0.192	0.112	0.126
HPS3 (UniProt Q969F9)	-0.021	0.206	-0.255
STMN1 (UniProt P16949)	1.14	1.18	0.78
SMG1 (UniProt Q96Q15)	-0.284	-0.117	0.119
FTH1 (UniProt P02794)	0.266	0.204	-2.18
PTPN12 (UniProt Q05209)	-0.407	-0.595	-0.087
GMIP (UniProt Q9P107)	-0.232	-0.0407	-0.0798
HDHD3 (UniProt Q9BSH5)	-0.136	-0.867	-2.27
CRELD1 (UniProt Q96HD1)	-0.249	-0.193	-0.113
GRB10 (UniProt Q13322)	-0.159	-0.12	-0.636
PTCD3 (UniProt Q96EY7)	0.272	0.525	-0.0411
TRADD (UniProt Q15628)	0.0371	0.0442	-0.497
UAP1L1 (UniProt Q3KQV9)	0.536	0.556	-0.793
MAP3K7 (UniProt O43318)	0.164	0.123	0.066
OSGEPL1 (UniProt Q9H4B0)	0.0734	-0.263	-0.494
FASTKD5 (UniProt Q7L8L6)	-1.07	0.633	0.437
